Test results: US20230100838A1 (Revolution Medicines, Inc., priority 2019, published 2023)

What was measured:
Type in all cases: binding
[1] = biological target: T1, GDP-loaded K-Ras (1-169) G12D, C51S, C80L, C118S (Homo sapiens, UniProt P01116, C118S/C51S/C80L/G12D); assay: K-Ras G12D(GDP) cross-linking assay (conjugate formation, TOF mass spectrometry); parameters: key: 0: No observed x-linking; +: 0 < x ≤ 20; ++: 20 < x ≤ 40; +++: 40 < x ≤ 100; settings: percent covalently modified K-Ras by MS, room temperature, typical compound conc. 2, 10, 25 μM, endpoints 1 and 24 h
T1 construct: GDP-loaded K-Ras (1-169) G12D, C51S, C80L, C118S
Outline: (§1)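 5 μM protein (final, from 50 μM) in HEPES/NaCl/MgCl2 buffer pH 7.4 with compound typically at 2, 10 and 25 μM, room temperature, 1 and 24 h endpoints; formic acid quench. Intact-protein LC–TOF MS; percent modification is covalent adduct peak height over total K-Ras peak height.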

[2] = biological target: T2, GDP-loaded K-Ras (1-169) C51S, C80L, C118S (Homo sapiens, UniProt P01116, C118S/C51S/C80L); assay: K-Ras WT (GDP) cross-linking assay (conjugate formation, TOF mass spectrometry); parameters: key: 0: No observed x-linking; +: 0 < x ≤ 20; ++: 20 < x ≤ 40; +++: 40 < x ≤ 100; settings: percent covalently modified K-Ras by MS, room temperature, typical compound conc. 2, 10, 25 μM, endpoints 1 and 24 h
T2 construct: GDP-loaded K-Ras (1-169) C51S, C80L, C118S
Outline: as §1

K-Ras G12S = K-Ras G12S (Homo sapiens, UniProt P01116, G12S); assay: K-Ras G12S cross-linking assay (comparable procedure, conjugate formation, TOF mass spectrometry); parameters: key: 0: No observed x-linking
Outline: as §1

[3] = Table 5, percent covalently modified K-Ras by MS
[4] = Table 4, percent covalently modified K-Ras by MS

SMILES	G12D x-linking (%) ([1]; Table 5)	WT x-linking (%) ([2]; Table 5)	G12S x-linking (%) (K-Ras G12S; [3])	G12D x-linking (%) ([1]; Table 4)	WT x-linking (%) ([2]; Table 4)	G12S x-linking (%) (K-Ras G12S; [4])
COCCN=C=N[C@H]1CC[C@@H](N(C)c2nc(OC[C@@H]3CCCN3C)nc3c2CCN(c2cccc4cccc(C)c24)C3)CC1 [Example 79, N-((1s,4R)-4-((((2-methoxyethyl)imino)methylene)amino)cyclohexyl)-N-methyl-7-(8-methylnaphthalen-1-yl)-2-(((S)-1-methylpyrrolidin-2-yl)methoxy)-5,6,7,8-tetrahydropyrido[3,4-d]pyrimidin-4-amine]	+++ (40 < x ≤ 100)	++ (20 < x ≤ 100)	++ (10 < x ≤ 100)			
O=C(C1CN1)N1CCN(c2ncnc3c(F)c(-c4ccccc4F)c(Cl)cc23)CC1 (stereo not drawn) [Example 16, aziridin-2-yl(4-(6-chloro-8-fluoro-7-(2-fluorophenyl)quinazolin-4-yl)piperazin-1-yl)methanone]				+ (0 < x ≤ 20)	+ (0 < x ≤ 20)	+ (0 < x ≤ 10)
COc1ccc(CN=C=NCCCN(C)c2nc(=O)n(-c3c(C)ccnc3C(C)C)c3nc(-c4ccccc4F)c(F)cc23)cc1 [Example 58]				+ (0 < x ≤ 20)	+ (0 < x ≤ 20)	++ (10 < x ≤ 100)
COc1ccc(CN=C=NCCCN(C)c2nc(OC[C@@H]3CCCN3C)nc3c2CCN(c2cccc4cccc(C)c24)C3)cc1 [Example 33, N-(3-((((4-methoxybenzyl)imino)methylene)amino)propyl)-N-methyl-7-(8-methylnaphthalen-1-yl)-2-(((S)-1-methylpyrrolidin-2-yl)methoxy)-5,6,7,8-tetrahydropyrido[3,4-d]pyrimidin-4-amine]				+++ (40 < x ≤ 100)	++ (20 < x ≤ 100)	++ (10 < x ≤ 100)
Cc1cccc2cccc(N3CCc4c(nc(OC[C@@H]5CCCN5C)nc4N4CCC(N=C=NC(C)C)CC4)C3)c12 [Example 23, N-isopropyl-N-(1-(7-(8-methylnaphthalen-1-yl)-2-(((S)-1-methylpyrrolidin-2-yl)methoxy)-5,6,7,8-tetrahydropyrido[3,4-d]pyrimidin-4-yl)piperidin-4-yl)methanediimine]				++ (20 < x ≤ 40)	+ (0 < x ≤ 20)	++ (10 < x ≤ 100)
Cc1cccc2cccc(N3CCc4c(nc(OC[C@@H]5CCCN5C)nc4N(C)CCN=C=NCc4ccc(Cl)cc4)C3)c12 [Example 28, N-(2-((((4-chlorobenzyl)imino)methylene)amino)ethyl)-N-methyl-7-(8-methylnaphthalen-1-yl)-2-(((S)-1-methylpyrrolidin-2-yl)methoxy)-5,6,7,8-tetrahydropyrido[3,4-d]pyrimidin-4-amine]				++ (20 < x ≤ 40)	+ (0 < x ≤ 20)	++ (10 < x ≤ 100)
Cc1cccc2cccc(N3CCc4c(nc(OC[C@@H]5CCCN5C)nc4NCCNC(=O)NCCCl)C3)c12 [Example 36, (S)-1-(2-chloroethyl)-3-(2-((7-(8-methylnaphthalen-1-yl)-2-((1-methylpyrrolidin-2-yl)methoxy)-5,6,7,8-tetrahydropyrido[3,4-d]pyrimidin-4-yl)amino)ethyl)urea]				+ (0 < x ≤ 20)	+ (0 < x ≤ 20)	+ (0 < x ≤ 10)
Fc1ccccc1-c1c(Cl)cc2c(N3CCC(N=C=Nc4ccc(Cl)cc4)CC3)ncnc2c1F [Example 6, N-(1-(6-chloro-8-fluoro-7-(2-fluorophenyl)quinazolin-4-yl)piperidin-4-yl)-N-(4-chiorophenyl)methanediimine]				0	0	0
OB(O)C1CCN(c2ncnc3c(F)c(-c4ccccc4F)c(Cl)cc23)CC1 [Example 19, (1-(6-chloro-8-fluoro-7-(2-fluorophenyl)quinazolin-4-yl)piperidin-4-yl)boronic Acid]				0	0	0

Next, values leading:

G12D x-linking (%) ([1]; Table 5)	WT x-linking (%) ([2]; Table 5)	G12S x-linking (%) (K-Ras G12S; [3])	G12D x-linking (%) ([1]; Table 4)	WT x-linking (%) ([2]; Table 4)	G12S x-linking (%) (K-Ras G12S; [4])	SMILES
			+ (0 < x ≤ 20)	+ (0 < x ≤ 20)	+ (0 < x ≤ 10)	Cc1cccc2cccc(N3CCc4c(nc(OC[C@@H]5CCCN5C)nc4N4CCC(C(O)(O)C(F)(F)F)CC4)C3)c12 [Example 51, (S)-2,2,2-trifluoro-1-(1-(7-(8-methylnaphthalen-1-yl)-2-((1-methylpyrrolidin-2-yl)methoxy)-5,6,7,8-tetrahydropyrido[3,4-d]pyrimidin-4-yl)piperidin-4-yl)ethane-1,1-diol]
+ (0 < x ≤ 20)	+ (0 < x ≤ 20)	+ (0 < x ≤ 10)				Cc1cccc2cccc(N3CCc4c(nc(OC[C@@H]5CCCN5C)nc4N4CCC(N=C=NC5CCN(c6ccccc6)CC5)CC4)C3)c12 [Example 84, N-(1-(7-(8-methylnaphthalen-1-yl)-2-(((S)-1-methylpyrrolidin-2-yl)methoxy)-5,6,7,8-tetrahydropyrido[3,4-d]pyrimidin-4-yl)piperidin-4-yl)-N-(1-phenylpiperidin-4-yl)methanediimine]
+ (0 < x ≤ 20)	+ (0 < x ≤ 20)	+ (0 < x ≤ 10)				COc1ccc(CN=C=NC2CCN(c3nc(OC[C@@H]4CCCN4C)nc4c3CCN(c3cccc5cccc(C)c35)C4)CC2)c(OC)c1 [Example 82, N-(2,4-dimethoxybenzyl)-N-(1-(7-(8-methylnaphthalen-1-yl)-2-(((S)-1-methylpyrrolidin-2-yl)methoxy)-5,6,7,8-tetrahydropyrido[3,4-d]pyrimidin-4-yl)piperidin-4-yl)methanediimine]
			+ (0 < x ≤ 20)	+ (0 < x ≤ 20)	+ (0 < x ≤ 10)	CN(CCN=C=NCc1ccccc1)c1ncnc2c(F)c(-c3ccccc3F)c(Cl)cc12 [Example 8, N-(2-(((benzylimino)methylene)amino)ethyl)-6-chloro-8-fluoro-7-(2-fluorophenyl)-N-methylquinazolin-4-amine]
			+ (0 < x ≤ 20)	+ (0 < x ≤ 20)	+ (0 < x ≤ 10)	CN=C=NCCN(C)c1ncnc2c(F)c(-c3ccccc3F)c(Cl)cc12 [Example 9, 6-chloro-8-fluoro-7-(2-fluorophenyl)-N-methyl-N-(2-(((methylimino)methylene)amino)ethyl)quinazolin-4-amine]
			+ (0 < x ≤ 20)	+ (0 < x ≤ 20)	+ (0 < x ≤ 10)	Cc1cccc2cccc(N3CCc4c(nc(OC[C@@H]5CCCN5C)nc4NCCNC4=NCCO4)C3)c12 [Example 40, (S)—N^1-(4,5-dihydrooxazol-2-yl)-N^2-(7-(8-methylnaphthalen-1-yl)-2-((1-methylpyrrolidin-2-yl)methoxy)-5,6,7,8-tetrahydropyrido[3,4-d]pyrimidin-4-yl)ethane-1,2-diamine]
			+ (0 < x ≤ 20)	+ (0 < x ≤ 20)	+ (0 < x ≤ 10)	Fc1ccccc1-c1c(Cl)cc2c(N3CCC(NC4=NCCO4)CC3)ncnc2c1F [Example 13, N-(1-(6-chloro-8-fluoro-7-(2-fluorophenyl)quinazolin-4-yl)piperidin-4-yl)-4,5-dihydrooxazol-2-amine]
			++ (20 < x ≤ 40)	++ (20 < x ≤ 100)	++ (10 < x ≤ 100)	CCCN=C=NCCCN(C)c1nc(=O)n(-c2c(C)ccnc2C(C)C)c2nc(-c3ccccc3F)c(F)cc12 [Example 55, 6-fluoro-7-(2-fluorophenyl)-1-(2-isopropyl-4-methylpyridin-3-yl)-4-(methyl(3-(((propylimino)methylene)amino)propyl)amino)pyrido[2,3-d]pyrimidin-2(1H)-one]
+++ (40 < x ≤ 100)	++ (20 < x ≤ 100)	++ (10 < x ≤ 100)				COCCN=C=NCC1CCN(c2nc(OC[C@@H]3CCCN3C)nc3c2CCN(c2cccc4cccc(C)c24)C3)CC1 [Example 77, N-(2-methoxyethyl)-N-((1-(7-(8-methylnaphthalen-1-yl)-2-(((S)-1-methylpyrrolidin-2-yl)methoxy)-5,6,7,8-tetrahydropyrido[3,4-d]pyrimidin-4-yl)piperidin-4-yl)methyl)methanediimine]
+++ (40 < x ≤ 100)	+ (0 < x ≤ 20)	++ (10 < x ≤ 100)				COCCN=C=N[C@@H]1CCN(c2nc(OC[C@@H]3CCCN3C)nc3c2CCN(c2cccc4cccc(C)c24)C3)C[C@@H]1CC#N [Example 75, 2-((3S,4R)-4-((((2-methoxyethyl)imino)methylene)amino)-1-(7-(8-methylnaphthalen-1-yl)-2-(((S)-1-methylpyrrolidin-2-yl)methoxy)-5,6,7,8-tetrahydropyrido[3,4-d]pyrimidin-4-yl)piperidin-3-yl)acetonitrile]
